Like-named read-outs stand apart in the source and are kept apart here.
Columns and labels:
YTHDC2 = molecular target: T1, YTHDC2 (Homo sapiens, UniProt Q9H6S0); experiment: DNA-fluorescence polarization (FP) competition assay, DC2; type: binding; details: Cheng-Prusoff from FP IC50, probe Kd 7 nM; two biological replicates
T1 construct: YTH domain of YTHDC2 (residues 1285–1424, cloned into the pGEX-6P-1 vector); made in house; host or cells: Rosetta (DE3) cells (E. coli)
T1 sequence (Q9H6S0 1285-1424): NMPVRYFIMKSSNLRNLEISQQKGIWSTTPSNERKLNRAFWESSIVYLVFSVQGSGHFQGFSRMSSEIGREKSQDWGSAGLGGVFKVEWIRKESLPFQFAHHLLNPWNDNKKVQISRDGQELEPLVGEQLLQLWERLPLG
Experimental: The binding affinity for DC1 could not be evaluated by HTRF because of interference of the compounds with the assay, which has a smaller assay window when performed with DC1 compared to the DF proteins. Thus, the FP assay was used to evaluate binding to DC1 and DC2.
The N-terminally GST-tagged YTH domain of YTHDC2 (residues 1285–1424, cloned into the pGEX-6P-1 vector) was overexpressed in Rosetta (DE3) cells grown overnight at 20 °C following induction with 0.4 mM isopropyl-β-D-thiogalactopyranoside (IPTG) at an OD600 of 0.8. The cells were harvested and resuspended in a lysis buffer containing 100 mM Tris–HCl (pH 8.0) and 500 mM NaCl. After cell lysis, the lysate was clarified by centrifugation at 48,000g for 1 h, and the soluble proteins were loaded onto a column packed with Glutathione Sepharose 4B (GE Healthcare), then eluted with 20 mM reduced glutathione in lysis buffer. Finally, a size-exclusion chromatography step (HiLoad 16/600 Superdex 200 pg column, GE Healthcare) was performed to further purify the protein in 20 mM Tris–HCl (pH 7.4) and 150 mM NaCl.
For fluorescence polarization (FP) experiments, a 5′-fluorescein-labeled m^6A-DNA probe (5′-FAM-[…](m6A)-CTAAGCT-3′) was synthesized by Microsynth AG.
The final concentration of the fluorescein-labeled DNA was kept constant at 3 nM. For YTHDC2 measurements, the protein concentration was set to 25 nM, while for YTHDF2 measurements, it was set to 10 nM, and for YTHDC1, it was set at 15 nM. The compound concentration was serially diluted to obtain the dose–response curve. The competition experiments were conducted in a final volume of 20 μL in a buffer containing 20 mM Tris–HCl (pH 7.4), 150 mM NaCl, and 0.01% bovine serum albumin (BSA), using a 384-well black flat-bottomed microplate (Corning 3575).
After incubating the mixture for 1 h, the anisotropy values were measured using a Tecan SPARK plate reader with 485/20 nm excitation and 535/25 nm emission polarization filters, suitable for fluorescein, at 25 °C. To obtain the equilibrium dissociation constant (K d), the IC50 values were first derived by fitting a dose–response curve to the data using nonlinear regression analysis in GraphPad Prism. These IC50 values were then converted to K d by using the Cheng–Prusoff equation: Kd=IC50/1+[L]/Kdprobe
IC50 is the observed value from FP assay, [L] is the probe concentration used, and K d ^probe is the binding affinity of probe for the target.

GST-YTHDF2 = molecular target: T2, GST-YTHDF2 (Homo sapiens, UniProt Q9Y5A9); experiment: HTRF-based binding assay, competition with m6A-oligoRNA, DF2; details: for Single-dose residual signal at 100 µM, DF2: 100 µM compound, normalized; for Residual signal at 1 mM concentration: 1 mM compound, relative to control, average of two technical replicates, * = interference with the assay; for LE (ligand efficiency, DF2): LE = -RT ln IC50/HAC from HTRF IC50
T2 construct: made in house
T2 sequence (Q9Y5A9 1-579): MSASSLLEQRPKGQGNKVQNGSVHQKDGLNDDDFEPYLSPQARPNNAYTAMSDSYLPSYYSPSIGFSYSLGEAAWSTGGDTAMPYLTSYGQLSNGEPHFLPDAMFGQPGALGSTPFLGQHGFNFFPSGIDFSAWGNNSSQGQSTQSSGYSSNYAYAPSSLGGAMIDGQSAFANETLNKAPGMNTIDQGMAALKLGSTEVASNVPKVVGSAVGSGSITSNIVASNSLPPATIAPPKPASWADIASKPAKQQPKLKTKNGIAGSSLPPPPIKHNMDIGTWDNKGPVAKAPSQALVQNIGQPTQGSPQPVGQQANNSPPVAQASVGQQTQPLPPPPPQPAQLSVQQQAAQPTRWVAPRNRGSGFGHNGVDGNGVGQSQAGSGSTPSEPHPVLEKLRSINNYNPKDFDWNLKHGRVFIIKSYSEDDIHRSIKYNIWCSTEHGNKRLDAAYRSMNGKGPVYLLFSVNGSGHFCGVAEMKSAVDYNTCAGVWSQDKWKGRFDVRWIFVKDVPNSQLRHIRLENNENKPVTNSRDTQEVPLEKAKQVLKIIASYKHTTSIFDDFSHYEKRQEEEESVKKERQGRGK

GST-YTHDF1 = molecular target: T3, GST-YTHDF1 (Homo sapiens, UniProt Q9BYJ9); experiment: HTRF-based binding assay, DF1; details: HTRF, 100 µM compound, normalized
T3 construct: made in house
T3 sequence (Q9BYJ9 1-559): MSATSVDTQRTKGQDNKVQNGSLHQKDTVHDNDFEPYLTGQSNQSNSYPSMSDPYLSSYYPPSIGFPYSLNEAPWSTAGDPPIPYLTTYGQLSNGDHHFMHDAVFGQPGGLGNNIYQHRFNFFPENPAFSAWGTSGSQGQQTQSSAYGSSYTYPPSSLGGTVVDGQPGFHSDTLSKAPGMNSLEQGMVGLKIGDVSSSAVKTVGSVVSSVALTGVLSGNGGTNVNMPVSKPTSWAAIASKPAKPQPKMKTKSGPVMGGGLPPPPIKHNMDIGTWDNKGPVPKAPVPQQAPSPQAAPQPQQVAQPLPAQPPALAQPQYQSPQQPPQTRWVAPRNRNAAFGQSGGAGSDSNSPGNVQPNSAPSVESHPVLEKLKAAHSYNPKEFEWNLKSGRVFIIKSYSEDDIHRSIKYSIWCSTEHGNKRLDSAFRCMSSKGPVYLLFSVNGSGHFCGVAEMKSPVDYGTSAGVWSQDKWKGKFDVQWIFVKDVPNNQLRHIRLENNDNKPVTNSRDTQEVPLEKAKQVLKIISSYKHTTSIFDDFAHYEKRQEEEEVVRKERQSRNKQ
Experimental: (§1) The HTRF-based assay was employed to evaluate the selectivity of the series against other DF proteins.
(§2) A dose–response experiment on DF1 and DF3 was conducted for compounds 17, 18, 23, and 27 (Figure S5). Compounds 17, 18, and 27 are active on three DF proteins. […] In contrast, compound 23 is selective for DF2, with residual signals (at the highest employed concentration of 62.5 μM) of 51 and 87% for DF1 and DF3, respectively.
(§3) GST-YTHDC1, GST-YTHDF1, GST-YTHDF2, and GST-YTHDF3 were purified as previously reported. The HTRF assay was assembled as detailed in ref with the only difference being that the starting concentration of the dose–response experiments used for the IC50 determination was variated dependently from the tested compound. The same protocol was applied to the four proteins. The competitive inhibition data of GST-YTHDF1 (single dose experiment at 100 μM compound concentration and dose–response curves), GST-YTHDF3 (single dose experiment at 100 μM compound concentration and dose–response curves), and GST-YTHDF2 (single dose experiment at 100 μM compound concentration) were normalized as described in ref to mitigate interference. The signal was measured as described in ref .

GST-YTHDF3 = molecular target: T4, GST-YTHDF3 (Homo sapiens, UniProt Q7Z739); experiment: HTRF-based binding assay, DF3; details: HTRF, 100 µM compound, normalized
T4 construct: made in house
T4 sequence (Q7Z739 1-585): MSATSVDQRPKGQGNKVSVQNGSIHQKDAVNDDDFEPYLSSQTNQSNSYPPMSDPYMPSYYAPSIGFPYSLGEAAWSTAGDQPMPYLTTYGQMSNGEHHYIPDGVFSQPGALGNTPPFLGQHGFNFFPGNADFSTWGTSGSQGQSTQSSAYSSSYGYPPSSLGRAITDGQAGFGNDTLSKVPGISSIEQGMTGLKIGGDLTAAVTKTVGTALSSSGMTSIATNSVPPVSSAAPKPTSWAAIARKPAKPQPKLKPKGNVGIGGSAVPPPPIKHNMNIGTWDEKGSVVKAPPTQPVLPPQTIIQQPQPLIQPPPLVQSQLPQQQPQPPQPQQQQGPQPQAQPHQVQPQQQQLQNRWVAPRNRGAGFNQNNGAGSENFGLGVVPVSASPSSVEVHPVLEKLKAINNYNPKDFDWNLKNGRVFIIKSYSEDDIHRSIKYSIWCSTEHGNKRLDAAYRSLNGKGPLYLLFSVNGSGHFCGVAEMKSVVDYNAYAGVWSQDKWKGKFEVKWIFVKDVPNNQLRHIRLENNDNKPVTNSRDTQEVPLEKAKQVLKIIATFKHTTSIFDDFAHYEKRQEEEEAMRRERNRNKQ
Experimental: as §1, §2, §3

[1] = dose-response, competitor m6A-oligoRNA, read-out: DF2 IC50 (HTRF assay)

| SMILES | IC50 (GST-YTHDF2; [1]) [µM] | Residual signal at 1 mM concentration (GST-YTHDF2; HTRF) [%] | also measured |
| --- | --- | --- | --- |
| CCOC(=O)c1ccc(Cc2cc3c(=O)[nH]c(=S)[nH]c3s2)cc1 [Compound S86] |  |  | Kd (YTHDC2): 210 µM; % at 125 μM (printed in IC50 column, IC50 could not be determined) (GST-YTHDF2; HTRF, 125 μM compound): 63% |
| Cc1cc2c(=O)[nH]c(=S)[nH]c2s1 [Compound S78] | 38 |  | Single-dose residual signal at 100 µM, DF1 (GST-YTHDF1): 17%; Single-dose residual signal at 100 µM, DF3 (GST-YTHDF3): 22%; Kd (YTHDC2): > 1000 µM; Single-dose residual signal at 100 µM, DF2 (GST-YTHDF2; HTRF): 8% |
| Cc1c(C(=O)O)sc2[nH]c(=S)[nH]c(=O)c12 [Compound S80] | 32 |  | Single-dose residual signal at 100 µM, DF1 (GST-YTHDF1): 15%; Single-dose residual signal at 100 µM, DF3 (GST-YTHDF3): 29%; Single-dose residual signal at 100 µM, DF2 (GST-YTHDF2; HTRF): 9% |
| Cc1c(C(=O)NCCCCO)sc2[nH]c(=S)[nH]c(=O)c12 [Compound S83] | 25 |  | Single-dose residual signal at 100 µM, DF1 (GST-YTHDF1): 17%; Single-dose residual signal at 100 µM, DF3 (GST-YTHDF3): 40%; Kd (YTHDC2): > 1000 µM; Single-dose residual signal at 100 µM, DF2 (GST-YTHDF2; HTRF): 9% |
| Cc1n[nH]c(=S)[nH]c1=O [Compound S53] |  | 38 |  |
| O=c1[nH]c(=S)[nH]c2sc3c(c12)CCC3 [Compound S59] | 53 | 35 |  |
| O=C(Nc1nnc[nH]1)C1CC1 [Compound S24] |  | > 90 |  |
| Cc1cc(O)c(OCC(=O)N=c2[nH]cc(C)s2)cn1 [Compound S6] |  | 60 |  |
| CCCc1nnc(NC(C)=O)s1 [Compound S26] |  | > 90 |  |
| Cc1c(C(C)O)sc2[nH]c(=S)[nH]c(=O)c12 (racemic) [Compound S79] | 27 |  | Single-dose residual signal at 100 µM, DF1 (GST-YTHDF1): 31%; Single-dose residual signal at 100 µM, DF3 (GST-YTHDF3): 30%; Kd (YTHDC2): > 1000 µM; Single-dose residual signal at 100 µM, DF2 (GST-YTHDF2; HTRF): 9% |
| C=CCc1cccc(C=Nc2c[nH]c(=O)[nH]c2=O)c1O [Compound S18] |  | 79 |  |
| N#Cc1c(C2CC2)n[nH]c1N [Compound S37] |  | > 90 |  |
| Cc1cc(O)c2[nH]ncc2n1 [Compound S13] |  | 62 |  |
| O=c1[nH]c(=S)[nH]c2scc(-c3ccccc3)c12 [Compound S74] | 94 |  | Kd (YTHDC2): > 1000 µM |
| Cc1cc(=O)c(OCc2ccc(F)cc2)c[nH]1 [Compound S1] | 310 | 31 |  |
| CC(=O)Nc1nnc(C=Cc2cccc([N+](=O)[O-])c2)s1 (mixture of isomers) [Compound S17] |  | 77 |  |
| CC=CC=C1C(=O)NC(=S)NC1=O [Compound 1] |  | 26 | IC50 (GST-YTHDF2): 19 µM; LE (ligand efficiency, DF2) (GST-YTHDF2): 0.50 kcal/(mol HAC) |
| CN(NC=C1C(=O)NC(=S)NC1=O)c1ccccc1 [Compound S49] |  | 54 |  |
| CC1(C)C(=O)NC(=S)NC1=O [Compound S43] |  | 11 |  |
| Cc1n[nH]c(N)c1C#N [Compound S36] |  | > 90 |  |
| CNc1cc(=O)[nH]c(=O)[nH]1 [Compound 4] | 250 | 18 | LE (ligand efficiency, DF2) (GST-YTHDF2): 0.49 kcal/(mol HAC) |
| Cn1cccc1C=C1C(=O)NC(=S)NC1=O [Compound S46] |  | 13 |  |
| CC(O)c1nc2cc(-c3cc(F)cc(Cl)c3)ccc2[nH]1 (centres unmarked) [Compound S25] |  | > 90 |  |
| COc1cnc(Br)cc1O [Compound S29] |  | > 90 |  |
